Reference: patent publication US20230321025A1, “METHOD AND COMPOUND FOR THE TREATMENT AND ELIMINATION OF AN IMMUNODEFICIENCY CONDITION” (priority 2020, published 2023)

Legend:
[1] = system: peripheral blood mononuclear cells (PBMC); assay: Drug-induced cytotoxicity in PBMC (MTS); type: cell-based; settings: for Toxicity testing, mean optical density: human, 7 days
Experimental: Drug efficacy was determined by the production of supernatant HIV-1 p24. Drug-induced cytotoxicity was determined by the metabolic reduction of tetrazolium salts (MTS; Promega).
The antiviral drug or agent of the invention, H2K-1001 (90i), was solubilized. PBMCs, stimulated with PHA (phytohemagglutinin) for three days were employed throughout. Virus stocks (U.S. Clinical isolates) grown in PBMCs only, that past the necessary quality controls (i.e., replicate to high titer in PBMCs and meet the requirements as to genotype and phenotype) were rapidly thawed and maintained on ice until required for infection.
Virus and cell controls were included on each test plate. Virus was added after cells and drugs were mixed. Cell, drug and virus containing cultures were incubated for seven (7) days with an interim feeding at day three or four.
Supernatants were sampled at seven days for p24 determination by antigen capture ELISA. Cytotoxicity was measured by the metabolic reduction of the tetrazolium salt according to the manufacturer’s (Promega) recommendations.
The drug analysis reports from these studies are provided below in Tables 7-10. Efficacy (EC50) and viability (IC50) determinations were made using Cho and Cho Median Effect Equation, as noted above. Efficacy is expressed as the 50% effective concentration (EC50) and drug induced toxicity as the 50% inhibitory concentration (IC50).

[2] = system: multi-drug resistant HIV-1 (MDR-27221); assay: Inhibitory activity against multi-drug resistant HIV-1 clinical isolate; type: cell-based; settings: MDR-27221 strain
Source text: Furthermore, a resistance conferring mutation has been identified for virtually all antiretroviral agents in clinical practice. A test virus parental stock originated from a genotypic antiretroviral resistance test (GART) study. Additionally, a clinical isolate was pre-confirmed for genetic and phenotypic variance prior to this test. […] Accordingly, the fact that 90I may be effective against MDR viruses with multiple modes of action, it can replace the need for combination HIV drug therapy. This finding may be highly significant because typical current single target-oriented designer antiretroviral drugs have seriously been challenged by resistant viruses. Due to natural selection, the HIV-1 virus may have developed several survival strategies that include mutation.

[3] = system: CEM-SS T-lymphoblastoid cells; assay: Drug-induced cytotoxicity in CEM-SS cells (tetrazolium reduction); settings: for Toxicity testing, mean optical density: human, 6 days
Source text: This assay was used to test the effectiveness of anti-HIV drug monotherapy in the established T-cell line CEM-SS infected with HIV-1RF, HIV-1IIIb, HIV-2ROD, or other cytolytic variants of HIV.
The drugs were solubilized in DMSO (dimethyl sulfoxide). […] CEM-SS cells were in logarithmic growth phase at the time of experimentation. Virus (HIV-1RF) stocks that past the necessary quality controls (killing effect on the type of cells used, limited variability, etc) were thawed and maintained on ice until required for addition.
Half-log serial dilutions of the antiviral agent or compound of the invention, H2K1001 (90i), were made in tissue culture media (RPMI 1640 without phenol red, supplemented with 10% heat inactivated fetal bovine serum, 1% L-Glutamine, 1% Pen/Strep and 50 ug/ml gentimycin). Virus, cell, drug and diluent (ethanol) controls were included for these tests. Virus was added after cells and drugs were mixed. Cell, drug, and virus containing cultures were incubated for six (6) days without additional feeding at which time the cultures were evaluated macroscopically and microscopically for cell toxicity, and the tetrazolium salt […] was added for quantitation by the colorimetric determination of formazan production (optical density).
Drug efficacy and cytotoxicity effects were determined six days after infection by the metabolic reduction of the tetrazolium salt XTT to its‘ formazan by surviving cells and was quantitated by determination of optical density at 450 nm with background subtraction at 650 nm (Tables 1-4).
The drug plate analysis reports from this assay are provided below in Tables 1-4. Calculated endpoints (EC50, etc.) were determined using Cho and Cho Median Effect Equation (Daids Virology Manual for HIV Laboratories, Compiled by The Division of Aids, National Institute of Allergy and Infectious Diseases, National Institutes of Health and Collaborating Investigators, Version January 1997).

HIV-1 = assay: Cell based time course study (mode of action); settings: AZT and Indinavir as controls
Source text: As such, the cell based time course study is such an important tool for the determination of viral kinetics and a mode of action for a drug. […] The dynamics of the interactions relate to the viral kinetic of infection and drug addition at various time points. In the various cell-based assays conducted on H2K1001 and/or 90I, it may be reasonably concluded that the compound works both early and late.

Question: Which results are given for `O=C(OCCOCCOC(=O)c1ccccc1)c1ccccc1` [90I, diethylene glycol dibenzoate]?
Answer: Toxicity % CC ([1]; 0.01 ug/ml): 94 % CC; Toxicity % CC ([1]; 0.03 ug/ml): 103 % CC; Toxicity % CC ([1]; 0.10 ug/ml): 91 % CC; Toxicity % CC ([1]; 0.33 ug/ml): 94 % CC; Toxicity % CC ([1]; 1 ug/ml): 97 % CC; Toxicity % CC ([1]; 3 ug/ml (3.2 in Table 11)): 94 % CC; Toxicity % CC ([1]; 10 ug/ml): 100 % CC; Toxicity % CC ([1]; 32 ug/ml): 104 % CC; Toxicity % CC ([1]; 100 ug/ml): 111 % CC; IC50 ([1]; PBMC, read-out: IC50 (drug induced toxicity)): > 100 mg/L; IC50 (drug induced toxicity) ([1]; PBMC, unit not given): greater than 100; Toxicity testing, mean optical density ([1]; 0.01 ug/ml): 1.3114; Toxicity testing, mean optical density ([1]; 0.03 ug/ml): 1.4316; Toxicity testing, mean optical density ([1]; 0.1 ug/ml): 1.2654; Toxicity testing, mean optical density ([1]; 0.33 ug/ml): 1.2992; Toxicity testing, mean optical density ([1]; 1 ug/ml): 1.3474; Toxicity testing, mean optical density ([1]; 3 ug/ml): 1.3102; Toxicity testing, mean optical density ([1]; 10 ug/ml): 1.3987; Toxicity testing, mean optical density ([1]; 32 ug/ml): 1.4463; Toxicity testing, mean optical density ([1]; 100 ug/ml): 1.5431; EC50 ([2]; Human immunodeficiency virus 1): 3 mg/L; TI [2]: > 333; Toxicity % CC ([3]; 0.01 ug/ml): 100 % CC; Toxicity % CC ([3]; 0.03 ug/ml): 103 % CC; Toxicity % CC ([3]; 0.1 ug/ml): 104 % CC; Toxicity % CC ([3]; 0.3 ug/ml): 100 % CC; Toxicity % CC ([3]; 1 ug/ml): 100 % CC; Toxicity % CC ([3]; 3 ug/ml): 99 % CC; Toxicity % CC ([3]; 10 ug/ml): 93 % CC; Toxicity % CC ([3]; 33 ug/ml): 94 % CC; Toxicity testing, optical density of single wells ([3]; 33 ug/ml, listed as H2K1001 (90I)): 2.3330; Toxicity % CC ([3]; 100 ug/ml): 106 % CC; 50% inhibitory concentration, IC50 (drug induced toxicity) ([3]; CEM-SS, high test concentration 100 ug/ml): greater than 100 ug/ml; IC50 ([3]; Homo sapiens, CEM-SS): > 100 mg/L; Toxicity testing, mean optical density ([3]; 0.01 ug/ml): 2.4317; Toxicity testing, mean optical density ([3]; 0.03 ug/ml): 2.4969; Toxicity testing, mean optical density ([3]; 0.1 ug/ml): 2.5149; Toxicity testing, mean optical density ([3]; 0.3 ug/ml): 2.4130; Toxicity testing, mean optical density ([3]; 1 ug/ml): 2.4177; Toxicity testing, mean optical density ([3]; 3 ug/ml): 2.4007; Toxicity testing, mean optical density ([3]; 33 ug/ml): 2.2879; Toxicity testing, mean optical density ([3]; 100 ug/ml): 2.5604; mode of action (time of inhibition) (HIV-1): inhibit HIV-1 both early and late
